Patent US8148347B2, “Inhibition of interaction of PSD93 and PSDS95 with nNOS and NMDA receptors” (The Johns Hopkins University, priority 2000, dated 2012)

Key:
Assay type in all cases: in vivo, rat
Male Sprague-Dawley rats [1] = assay: radiant heat tail-flick test, baseline and NMDA-induced thermal hyperalgesia
Source text: To examine whether PSD-95/SAP90 was required for thermal hyperalgesia triggered through NMDA receptor activation, we made an antisense oligonucletide (OND) corresponding to the PDZ domain nucleotides 241 to 258 (5′-[…]-3′; SEQ ID NO: 1) of rat PSD-95/SAP90 mRNA, as well as the sense OND and missense OND (5′-[…]-3′; SEQ ID NO: 2). All of the ONDs were compared to the Gene Bank database (GenBank accession number M96853) and found not to be complementary to any registered nucleotide sequences. The effects of antisense, sense and missense ONDs on baseline and NMDA-induced tail-flick latencies were assessed. […] To identify that NMDA-induced thermal hyperalgesia was produced specifically through NMDA receptor activation but not non-NMDA receptor activation, we observed the effects of a selective NMDA receptor antagonist, MK-801, and a selective non-NMDA receptor antagonist, DNQX, on NMDA-induced facilitation of the tail-flick reflex. […] In addition, motor weakness or dysfunction was not observed in locomotor tests (including placing reflex, grasping reflex and righting reflex) in any of the treated animals including the antisense groups (data not shown).
Animal preparation and behavioral testing. All experiments were carried out with the approval of the Animal Care Committee at the Johns Hopkins University and were consistent with the ethical guidelines of the National Institutes of Health and the International Association for the Study of Pain. Male Sprague-Dawley rats (250-300 g) were implanted with an intrathecal PE-10 catheter into the subarachnoid space at the rostral level of the spinal cord lumbar enlargement through an incision at the atlanto-occipital membrane according to the method as described.^25,27 One week or more later, the rats were injected intrathecally with saline or ONDs every 24 h for 4 days. On the fifth day, saline, NMDA, MK-801+NMDA or DNQX+NMDA was given intrathecally. Nociception was evaluated by the radiant heat tail-flick test. The doses and time point of maximal effect of NMDA used in the present study were determined based on a previous study.^24 The tail-flick apparatus (Model 33B Tail Flick Analgesy Meter, IITC Life Science, Woodland Hills, Calif., USA) generated a beam of radiant heat that was focused on the underside of the tail, 5 cm from the tip. A cut-off time latency of 13.5 s was used to avoid tissue damage to the tail. Nociception was assessed by the time required to induce tail-flick after applying radiant heat to the skin of the tail. The latency of reflexive removal of the tail from the heat was measured automatically to the nearest 0.01 s. Tail-flick latency was measured five times, and the basal latency was defined as the mean. Tail-flick data were expressed as percentage change calculated by the formula: (trial latency−baseline latency)/(baseline latency)×100%. Finally, PE-10 catheter position from each animal was confirmed when lumbar enlargement segments were removed for western blot analysis. PCR analysis of PSD-95/SAP90 in rat spinal cord. The cDNA sequences encoding portions of the PSD-95/SAP90 were amplified using the following synthetic OND primers: PSD1 (5′-[…]-3′; SEQ ID NO: 3) and PSD2 (5′-[…]-3′; SEQ ID NO: 4) for amplification of PSD-95/SAP90 codon positions 789-1525. RNA samples (1 μg) from rat spinal cord, brain and muscle were reverse transcribed to generate first-strand cDNA. The PCR reactions were performed for 25 cycles. Each cycle included 30 s at 94° C., 30 s at 55° C., and 30 s at 71° C. The PCR products were directly cloned into the TA cloning vector (Invitrogen Co., San Diego, Calif., USA) and verified by automatic DNA sequencing. Fusion protein construction and preparation. cDNA sequence encoding portion of PSD-95/SAP90 was amplified by PCR and subcloned in-frame into PGEX-2T (GIBCO, Rockville, Md., USA) via the BamHI and EcoRI restriction digest sites. […]

Male Sprague-Dawley rats [2] = assay: tests of locomotor function (placing, grasping, righting reflex) and general behaviors; settings: saline pretreatment + 1.25 μg NMDA intrathecal; five trials, mean (SD)
Description: The effects of ODNs on locomotor function were examined using the following methods.^52 The animals were organized randomly into six groups: control (saline); 12.5 antisense ODN; 25 μg antisense ODN; 50 μg antisense ODN; 50 μg sense ODN; 50 μg missense ODN. The rats were pretreated with ODNs or saline in the manner described above. On the fifth day, 10 μl of saline was injected intrathecally for each rat. In some saline or antisense ODN (50 μg)-treated rats, fresh NMDA solution (1.25 μg/10 μl) was injected intrathecally. The following tests were performed with the experimenter blind to which group was treated with the agents: (1) Placing reflex: The rat was held with the hind limbs slightly lower than the forelimbs, and the dorsal surfaces of the hind paws were brought into contact with the edge of a table. The experimenter recorded whether the hind paws were placed on the table surface reflexively; (2) Grasping reflex: The rat was placed on a wire grid and the experimenter recorded whether the hind paws grasped the wire on contact; (3) Righting reflex: The rat was placed on its back on a flat surface and the experimenter noted whether it immediately assumed the normal upright position. […] In addition, the rat general behaviors including spontaneous activity were observed.

Male Sprague-Dawley rats [3] = assay: measurement of isoflurane MAC (tail clamp); settings: saline-treated group, intrathecal NMDA 1.25 μg
Description: The ODNs were dissolved in saline before administration. As described in the previous work,^49 the rats were injected intrathecally with saline (10 μl) (control), antisense ODNs (12.5, 25, 50 μg/10 μl), sense ODN (50 μg/10 μl) and missense ODN (50 μg/10 μl), respectively, followed by an injection of 10 μl of saline to flush the catheter, every 24 h for 4 days.
(§1) On the fifth day after saline or ODNs injection, each rat was placed in a clear plastic cone and anesthetized with 5% isoflurane in oxygen for three to five minutes. After tracheostomy, the trachea of each animal was intubated with a 16-gauge polyethylene catheter. The inspired isoflurane concentration was reduced to 2%, and the animals breathed spontaneously until cannulation of a carotid artery and a jugular vein with PE-50 tubing was accomplished. The isoflurane concentration was decreased further to 1.5%, and ventilation was controlled by a Harvard Animal Respirator (Harvard Apparatus, South Natick, Mass.) adjusted according to the measurement of arterial blood gases to maintain normal partial pressure of oxygen (PO2=91-94 mmHg), partial pressure of carbon dioxide (PCO2=33-41 mmHg) and pH (7.4-7.44). Electrocardiography and systolic and diastolic blood pressure were monitored using a Grass Polygraph (Astroumed Grass, Quincy, Mass.) and Gould Pressure Transducer (Gould, Cleveland, Ohio). Rectal temperature was maintained between 36.5 and 37.5° C. by use of a heating blanket and warming lights.
A PE-10 catheter was introduced through and beyond the endotracheal tube until obstruction to passage was met and then withdrawn 1 to 2 mm. For isoflurane MAC measurement, the PE-10 catheter was connected to a parameter airway gas monitor (Datex-Engstrom, Inc., Tewksbury, Mass.). After stabilizing about 30 minutes, MAC was measured according to the methods described previously^34 using a long hemostat (8-inch Rochester Dean Hemostatic Forceps) clamped to the first ratchet lock on the tail for 1 min. The tail was always stimulated proximal to a previous test site. Gross movement of the head, extremities, or body was taken as a positive test result, whereas grimacing, swallowing, chewing, or tail flick were considered negative results. The isoflurane concentration was reduced in decrements of 0.12 to 0.15% until the negative response became positive, with 12-15 min equilibration allowed after changes in concentration.^50,51 The MAC was considered to be the concentration midway between the highest concentration that permitted movement in response to the stimulus and the lowest concentration that prevented movement. Finally, intrathecal PE-10 catheter position from each animal was confirmed.
(§2) In some saline-treated rats, after initial baseline MAC determination, NMDA at the dose of 1.25 μg^38 or saline was injected intrathecally in a volume of 10 μl saline, followed by an injection of 10 μl saline to flush the catheter. Fresh NMDA solution was prepared for each experiment. […] At this isoflurane concentration, 10 min after the intrathecal injection of NMDA, the animals were tested again for reactivity to tail clamp. The concentration of isoflurane was increased, and response to tail clamp was checked every 12-15 min thereafter until a negative response was achieved. In some antisense ODN (50 μg)-treated rats, after initial MAC determination, NMDA or saline was also administered intrathecally. The MAC for isoflurane was again determined following the aforementioned procedures.

Male Sprague-Dawley rats [4] = assay: blood pressure and heart rate during isoflurane anesthesia; settings: saline-treated group, intrathecal NMDA 1.25 μg
Source text: as §1, §2

## O=[N+]([O-])c1cc2nc(O)c(O)nc2cc1[N+](=O)[O-] [DNQX]
Male Sprague-Dawley rats [1]; intrathecal DNQX 20 nM/10 μl
  facilitation of the tail-flick reflex stimulated by NMDA: had no effect
Male Sprague-Dawley rats [1]; intrathecal DNQX 20 nM/10 μl + NMDA
  ΔTF latency (%): −22.6%

## C[C@]12N[C@H](Cc3ccccc31)c1ccccc12 [MK-801]
Male Sprague-Dawley rats [1]; intrathecal MK-801 10 nM/10 μl
  facilitation of the tail-flick reflex stimulated by NMDA: completely abolished
Male Sprague-Dawley rats [1]; intrathecal MK-801 10 nM/10 μl + NMDA
  ΔTF latency (%): 0.9%

## CN[C@H](CC(=O)O)C(=O)O [NMDA, N-methyl-D-aspartate]
Male Sprague-Dawley rats [1]; NMDA alone, intrathecal 10 nM/10 μl
  ΔTF latency (%): −25.84%
Male Sprague-Dawley rats [1]; intrathecal NMDA 5 nM/10 μl (data not shown)
  facilitation of the tail-flick reflex: induced a facilitation of the tail-flick reflex
Male Sprague-Dawley rats [1]; intrathecal NMDA 10 nM/10 μl, baseline 6.58±0.57
  tail-flick latency after NMDA: 4.88 ± 0.41 s
Male Sprague-Dawley rats [2]
  Grasping: 5 (0)
  Placing: 5 (0)
  Righting: 5 (0)
Male Sprague-Dawley rats [3]
  increase from isoflurane control MAC: 15%
Male Sprague-Dawley rats [4]
  Heart rate: 529.20±55.20 beats/min
  diastolic blood pressure: 118.30±7.81 mmHg
  systolic blood pressure: 135.70±3.38 mmHg
